This is an account of results in PMC10649086 (Antimicrobial Agents and Chemotherapy, 2023).

Experiment [1] deals with T1, SARS-CoV-2 M^pro G15S (Severe acute respiratory syndrome coronavirus 2, UniProt P0DTC1, G3278S). The note with it: cited from earlier work.
In a further experiment the test system is SARS-CoV-2 M^pro P132H. The note with it: cited from earlier work.
For experiment [2], the target named is T2, SARS-CoV-2 M^pro D248E (Severe acute respiratory syndrome coronavirus 2, UniProt P0DTC1, D3511E). The note with it: cited from earlier work.
For experiment [3], the target named is T3, SARS-CoV-2 M^pro T135I (Severe acute respiratory syndrome coronavirus 2, UniProt P0DTC1, T3398I). The note with it: cited from earlier work.
The target in experiment [4] is T4, SARS-CoV-2 M^pro H164N (Severe acute respiratory syndrome coronavirus 2, UniProt P0DTC1, H3427N). As to conditions: cited from earlier work.
In experiment [5] the test system is SARS-CoV-2-EGFP replicon T21I. The experiment is classed as cell-based.
Experiment [6] has as its system SARS-CoV-2-EGFP replicon L50F + E166A. The experiment is classed as cell-based.
Experiment [7] has as its system SARS-CoV-2-EGFP replicon T21I + L50F. It is filed as cell-based.
The test system of experiment [8] is SARS-CoV-2-EGFP replicon L167F. The experiment is classed as cell-based.
Experiment [9] relates to SARS-CoV-2-EGFP replicon E166A. It is filed as cell-based.
Experiment [10] concerns SARS-CoV-2-EGFP replicon S144A. It is filed as cell-based.
In experiment [11] the test system is SARS-CoV-2-EGFP replicon L50F. It is filed as cell-based.
In experiment [12] the test system is SARS-CoV-2 D614G B.1 (ancestral). The experiment is classed as cell-based.
Experiment [13] has as its system SARS-CoV-2-EGFP replicon L50F + E166A + L167F. The experiment is classed as cell-based.
The target in experiment [14] is T2, SARS-CoV-2 M^pro D248E. It is filed as biochemical.
The target in a further experiment is SARS-CoV-2 M^pro K90R (Severe acute respiratory syndrome coronavirus 2, UniProt P0DTC1, K3353R). The experiment is classed as biochemical.
The target in experiment [15] is SARS-CoV-2 M^pro H172Y + P252L (Severe acute respiratory syndrome coronavirus 2, UniProt P0DTC1, H3435Y/P3515L). It is filed as biochemical.
In experiment [16] the target is SARS-CoV-2 M^pro T21I + C160F + A173V+ V186A + T304I (Severe acute respiratory syndrome coronavirus 2, UniProt P0DTC1, A3436V/C3423F/T3284I/T3567I/V3449A). It is filed as biochemical.
For experiment [17], the target named is T4, SARS-CoV-2 M^pro H164N. The experiment is classed as biochemical.
Experiment [18] concerns the target SARS-CoV-2 M^pro T21I + S144A + T304I (Severe acute respiratory syndrome coronavirus 2, UniProt P0DTC1, S3407A/T3284I/T3567I). It is filed as biochemical.
Experiment [19] concerns the target SARS-CoV-2 M^pro T21I + A173V + T304I (Severe acute respiratory syndrome coronavirus 2, UniProt P0DTC1, A3436V/T3284I/T3567I). It is filed as biochemical.
The target in experiment [20] is T1, SARS-CoV-2 M^pro G15S. It is filed as biochemical.
Experiment [21] addresses SARS-CoV-2 M^pro L50F + F140L + L167F + T304I (Severe acute respiratory syndrome coronavirus 2, UniProt P0DTC1, F3403L/L3313F/L3430F/T3567I). It is filed as biochemical.
A further experiment has as its target SARS-CoV-2 M^pro A260V (Severe acute respiratory syndrome coronavirus 2, UniProt P0DTC1, A3523V). The experiment is classed as biochemical.
In experiment [22] the target is SARS-CoV-2 M^pro L50F + E166A + L167F (Severe acute respiratory syndrome coronavirus 2, UniProt P0DTC1, E3429A/L3313F/L3430F). The experiment is classed as biochemical.
Experiment [23] addresses SARS-CoV-2 M^pro L50F + A173V (Severe acute respiratory syndrome coronavirus 2, UniProt P0DTC1, A3436V/L3313F). It is filed as biochemical.
For experiment [24], the target named is SARS-CoV-2 M^pro A173V + T304I (Severe acute respiratory syndrome coronavirus 2, UniProt P0DTC1, A3436V/T3567I). It is filed as biochemical.
The target in experiment [25] is SARS-CoV-2 M^pro T21I + E166V (Severe acute respiratory syndrome coronavirus 2, UniProt P0DTC1, E3429V/T3284I). It is filed as biochemical.
For a further experiment, the target named is SARS-CoV-2 M^pro S144A (Severe acute respiratory syndrome coronavirus 2, UniProt P0DTC1, S3407A). It is filed as biochemical.
A further experiment deals with SARS-CoV-2 M^pro T21I (Severe acute respiratory syndrome coronavirus 2, UniProt P0DTC1, T3284I). The experiment is classed as biochemical.
The target of experiment [26] is SARS-CoV-2 M^pro T21I + S144A (Severe acute respiratory syndrome coronavirus 2, UniProt P0DTC1, S3407A/T3284I). The experiment is classed as biochemical.
For experiment [27], the target named is SARS-CoV-2 M^pro T21I + L50F + A193P + S301P (Severe acute respiratory syndrome coronavirus 2, UniProt P0DTC1, A3456P/L3313F/S3564P/T3284I). The experiment is classed as biochemical.
Experiment [28] deals with SARS-CoV-2 M^pro T21I + L50F (Severe acute respiratory syndrome coronavirus 2, UniProt P0DTC1, L3313F/T3284I). It is filed as biochemical.
Experiment [29] concerns the target SARS-CoV-2 M^pro L50F + E166V (Severe acute respiratory syndrome coronavirus 2, UniProt P0DTC1, E3429V/L3313F). The experiment is classed as biochemical.
For experiment [30], the target named is T3, SARS-CoV-2 M^pro T135I. The experiment is classed as biochemical.
Another experiment deals with SARS-CoV-2 M^pro E166A (Severe acute respiratory syndrome coronavirus 2, UniProt P0DTC1, E3429A). The experiment is classed as biochemical.
The next experiment has as its target SARS-CoV-2 M^pro E166V (Severe acute respiratory syndrome coronavirus 2, UniProt P0DTC1, E3429V). It is filed as biochemical.
The target of the next experiment is SARS-CoV-2 M^pro L50F (Severe acute respiratory syndrome coronavirus 2, UniProt P0DTC1, L3313F). The experiment is classed as biochemical.
Experiment [31] addresses SARS-CoV-2 M^pro L50F + T304I (Severe acute respiratory syndrome coronavirus 2, UniProt P0DTC1, L3313F/T3567I). The experiment is classed as biochemical.
For the next experiment, the target named is SARS-CoV-2 M^pro H172Y (Severe acute respiratory syndrome coronavirus 2, UniProt P0DTC1, H3435Y). It is filed as biochemical.
Experiment [32] addresses SARS-CoV-2 M^pro T135I + T304I (Severe acute respiratory syndrome coronavirus 2, UniProt P0DTC1, T3398I/T3567I). It is filed as biochemical.
Experiment [33] addresses SARS-CoV-2 M^pro L50F + E166A (Severe acute respiratory syndrome coronavirus 2, UniProt P0DTC1, E3429A/L3313F). It is filed as biochemical.
For experiment [34], the target named is SARS-CoV-2 M^pro T21I + T304I (Severe acute respiratory syndrome coronavirus 2, UniProt P0DTC1, T3284I/T3567I). The experiment is classed as biochemical.
Another experiment deals with SARS-CoV-2 M^pro Q189K (Severe acute respiratory syndrome coronavirus 2, UniProt P0DTC1, Q3452K). The experiment is classed as biochemical.
Experiment [35] has as its target SARS-CoV-2 M^pro T21I + A173V (Severe acute respiratory syndrome coronavirus 2, UniProt P0DTC1, A3436V/T3284I). The experiment is classed as biochemical.

`CC(C)(C)[C@H](NC(=O)C(F)(F)F)C(=O)N1C[C@H]2[C@@H]([C@H]1C(=O)N[C@H](C#N)C[C@@H]1CCNC1=O)C2(C)C` [nirmatrelvir]: the “resistance in the Mpro assay” value on SARS-CoV-2 M^pro G15S [1], on SARS-CoV-2 M^pro D248E [2], on SARS-CoV-2 M^pro T135I [3] and at SARS-CoV-2 M^pro H164N [4] was “~fourfold” in each case. The “effect of P132H variant on inhibition” value with SARS-CoV-2 M^pro P132H is on record as “no effect”.

For orientation: EC50 means the concentration that produces a half-maximal response. Usually EC90 stands for the concentration at which the effect reaches the 90% level. As for `N#C[C@H](C[C@@H]1CCCNC1=O)NC(=O)[C@H](CC1CC1)NC(=O)c1cc2cccc(Cl)c2[nH]1` [pomotrelvir], the EC50 in [5] (read-out: EC50 Mean (SD)) stood at 33 nM; in [6] (read-out: EC50 Mean (SD)), 410 nM; in [7] (read-out: EC50 Mean (SD)), 110 nM; in experiment [8] (read-out: EC50 Mean (SD)), 56 nM; in [9] (read-out: EC50 Mean (SD)), 110 nM; in experiment [10] (read-out: EC50 Mean (SD)) it was 92 nM. Moreover, the EC50 in experiment [11] (read-out: EC50 Mean (SD)) came to 14 nM; in experiment [12] (read-out: EC50 Mean (SD)) it was 151 nM; in experiment [13] (read-out: EC50 Mean (SD)), 1400 nM. Further, the EC90 in experiment [5] (read-out: EC90 Mean (SD)) is 270 nM; in [6] (read-out: EC90 Mean (SD)), 1800 nM; in [7] (read-out: EC90 Mean (SD)) it was 780 nM; in experiment [8] (read-out: EC90 Mean (SD)), 510 nM; in [9] (read-out: EC90 Mean (SD)), 710 nM; in experiment [10] (read-out: EC90 Mean (SD)), 560 nM. For the same molecule, the figures for the EC90 in experiment [11] (read-out: EC90 Mean (SD)), in experiment [12] (read-out: EC90 Mean (SD)) and in experiment [13] (read-out: EC90 Mean (SD)) were 150 nM, 547 nM and 8300 nM, respectively.

As usually defined, the IC50 is the concentration needed to halve the response being measured. Consider GC376, for which the IC50 was 30 nM at SARS-CoV-2 M^pro D248E [14]; 10 nM on SARS-CoV-2 M^pro K90R; 280 nM in [15]; 90 nM in experiment [16]; 80 nM on SARS-CoV-2 M^pro H164N [17]; 190 nM in experiment [18]. The IC50 worked out at 90 nM in [19]; 20 nM on SARS-CoV-2 M^pro G15S [20]; 170 nM in experiment [21]; 20 nM against SARS-CoV-2 M^pro A260V; 760 nM in [22]; 60 nM in experiment [23]. The IC50 came to 100 nM in experiment [24]; 590 nM in experiment [25]; 120 nM against SARS-CoV-2 M^pro S144A; 20 nM at SARS-CoV-2 M^pro T21I; 120 nM in experiment [26]; 70 nM in experiment [27]. Besides, the IC50 was 20 nM in experiment [28]; 430 nM in experiment [29]; 20 nM at SARS-CoV-2 M^pro T135I [30]; 320 nM against SARS-CoV-2 M^pro E166A; 660 nM on SARS-CoV-2 M^pro E166V; 20 nM against SARS-CoV-2 M^pro L50F. The IC50 in experiment [31] is 60 nM; against SARS-CoV-2 M^pro H172Y, 410 nM; in [32], 70 nM; in experiment [33] it was 270 nM; in experiment [34], 50 nM; at SARS-CoV-2 M^pro Q189K it was 50 nM. Further, the IC50 in [35] was 80 nM.
